The text below walks through data of US20230286973A1, “PROTEIN SECRETION INHIBITORS” (KEZAR LIFE SCIENCES, priority 2020, published 2023).

pEC50, pIC50: −log10 of the molar value. Like-named read-outs stand apart in the source and are kept apart here.

Data set [1] can be described thus: Liver Microsome Stability Assay (mouse). The conditions noted are these: mouse liver microsomes, with NADPH, 1.0 uM compound. (Liver microsomes are a subcellular fraction often used to study metabolism.)
Method: (§1) Stability of a compound was assessed in the presence of liver microsomes from various sources—mouse, rat, monkey and human liver microsomes. 1.0 uM compound, 0.4% DMSO in 0.1 M Potassium Phosphate with 1.0 mg/mL liver microsomes, were incubated at 37° C. with or without 1 mM NADPH. The samples were quenched at 0, and 30 minutes.
Data set [2] has as its system IL-2-FL/Gaussia Luciferase. The data set can be described thus: Dox Induced IL2-FL-Gluc Assay. The data set is classed as cell-based. The conditions noted are these: for pIC50: 24 hr Dox induction, 293FRT/TO cells, read-out: 24 hr Dox Inducible IL2FLGluc 293FRT/TO: Mean IC50; for 24 hr Dox Inducible IL2FLGluc 293FRT/TO: IL2/PD1: ratio of IL2FLGluc IC50 to PD1ssGluc IC50. In short, it runs like this: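 Flp-In 293 T-REx cells stably carrying doxycycline-inducible full-length IL-2 (aa 1-153) fused at its C-terminus to Gaussia luciferase, selected with hygromycin and blasticidin. Cells were plated the day before, then treated with compounds in DMSO/media containing doxycycline at 37° C, 5% CO2.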

For data set [3], the system named is multiple myeloma cell line U266B1. The data set can be described thus: U266 Cell Viability Assay. The data set is classed as cell-based, human. The conditions noted are these: Homo sapiens, U-266, 48 h, U266B1 cells, Celltiter-Glo. In short, it runs like this:
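Cells grown in RPMI 1640 with 10% FBS, 2 mM glutamine and penicillin/streptomycin were exposed to compound dilutions in DMSO/media for 48 hours at 37° C., 5% CO2. Viability was read by CellTiter-Glo luminescence. Undefined stereocentres mean data for stereoisomer mixtures.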
For orientation: In ATP-based viability assays light output follows the ATP content of the culture.

Data set [4] has as its system multiple myeloma cell line NCI-H929. The data set can be described thus: H929 Cell Viability Assay. The format is cell-based, human. The settings on record: Homo sapiens, NCI-H929, 48 h, NCI-H929 cells, Celltiter-Glo. In short, it runs like this: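 NCI-H929 cells, resuspended in RPMI 1640 with 10% FBS and 2 mM glutamine, were treated with compound dilutions in DMSO/media and incubated 48 hours at 37° C, 5% CO2. Viability was read by CellTiter-Glo luminescence. Compounds drawn without stereochemistry were tested as stereoisomer mixtures.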

Data set [5] can be described thus: Liver Microsome Stability Assay (human). The conditions noted are these: human liver microsomes, with NADPH, 1.0 uM compound.
Method: as §1
Data set [6] concerns TNFα-FL/Gaussia Luciferase. The data set can be described thus: Dox Induced TNFα-FL-Gluc Assay. The data set is classed as cell-based. The conditions noted are these: for pIC50: 24 hr Dox induction, 293FRT/TO cells, read-out: 24 hr Dox Inducible TNFaFLGluc 293FRT/TO: Mean IC50; for 24 hr Dox Inducible TNFaFLGluc 293FRT/TO: TNF/PD1: ratio of TNFaFLGluc IC50 to PD1ssGluc IC50. In short, it runs like this:
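Flp-In 293 T-REx cells stably expressing full-length TNFα (aa 1-233) fused at its C-terminus to Gaussia luciferase under tetracycline-regulated control were plated the day before assay. Compound dilutions in DMSO/media containing doxycycline were added and incubated at 37 °C, 5% CO2. Unspecified stereochemistry denotes stereoisomer mixtures.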

Data set [7] concerns PD1-ss+10aa/Gaussia Luciferase. The data set can be described thus: Dox-Induced PD1-ss-Gluc Assay. The format is cell-based. The conditions noted are these: 24 hr Dox induction, 293FRT/TO cells, read-out: 24 hr Dox Inducible PD1ssGluc 293FRT/TO: Mean IC50. In short, it runs like this:
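Stable Flp-In 293 T-REx cells carried a doxycycline-inducible construct of Gaussia luciferase fused to the PD1 signal sequence plus 10 amino acids. Cells were plated the day before, then treated with compound dilutions in DMSO/media containing doxycycline at 37 °C, 5% CO2.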

Data set [8] in a line: Liver Microsome Stability Assay (rat). The conditions noted are these: rat liver microsomes, with NADPH, 1.0 uM compound.
Method: as §1
For data set [9], the system named is HER3-ss+4aa/Gaussia Luciferase. Put plainly: Dox-Induced Her3-ss-Gluc Assay. The format is cell-based. The conditions noted are these: 24 hr Dox induction, 293FRT/TO cells, read-out: 24 hr Dox Inducible Her3(ss + 4)Gluc 293FRT/TO: Mean IC50. Summed up: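 Stable Flp-In 293 T-REx line expressing Gaussia luciferase fused to the HER3 signal sequence plus 4 amino acids under tetracycline-regulated (T-REx) control. Cells plated the day before, then treated with compound dilutions in DMSO/media containing doxycycline and incubated at 37° C., 5% CO2.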

Data set [10] is described as follows: Liver Microsome Stability Assay (monkey). The settings on record: monkey liver microsomes, with NADPH, 1.0 uM compound.
Method: as §1
[11] abbreviates: '<=>' given where both are I.A.

Usually pEC50 stands for the negative decadic logarithm of the EC50, by convention in mol/L. With `COCc1ccc(N2CCC[C@@H]2c2csc(NC(=O)c3cccn3Cc3ccncc3)n2)cc1` [Compound A48, (R)-N-(4-(1-(4-(methoxymethyl)phenyl)pyrrolidin-2-yl)thiazol-2-yl)-1-(pyridin-4-ylmethyl)-1H-pyrrole-2-carboxamide], in data set [1], the “Liver Microsome Stability (Multiple Species): Mouse - % Remaining after 30 min w/NADPH” value worked out at 4.71%. Further, the pIC50 is 7.87 in data set [2], 7.00 in [6], 8.21 in [7] and 7.76 in [9]. Besides, in data set [2], the “24 hr Dox Inducible IL2FLGluc 293FRT/TO: IL2/PD1” value turned out to be 2.2. Moreover, the pEC50 in data set [3] is less than 4.60; in data set [4] it was 6.83. For the same compound, the “Liver Microsome Stability (Multiple Species): Human - % Remaining after 30 min w/NADPH” value in [5] amounted to 2.91%. For the same compound, the “24 hr Dox Inducible TNFaFLGluc 293FRT/TO: TNF/PD1” value in data set [6] was 16.4. The “Liver Microsome Stability (Multiple Species): Rat - % Remaining after 30 min w/NADPH” value in [8] turned out to be 0.64%. Besides, the “Liver Microsome Stability (Multiple Species): Monkey - % Remaining after 30 min w/NADPH” value in data set [10] was 1.44%.

For `N#Cc1cc(Cn2cccc2C(=O)Nc2nc([C@H]3CCCN3c3ccccc3)cs2)ccn1` [Compound E60, (R)-1-((2-cyanopyridin-4-yl)methyl)-N-(4-(1-phenylpyrrolidin-2-yl)thiazol-2-yl)-1H-pyrrole-2-carboxamide], the “Liver Microsome Stability (Multiple Species): Mouse - % Remaining after 30 min w/NADPH” value in data set [1] is given as 6.59%. In addition, the pIC50 in [2] (mean) was 5.77; in data set [6] (mean), less than 4.60; in data set [7] (mean), 6.10; in data set [9] (mean), 5.89. The “24 hr Dox Inducible IL2FLGluc 293FRT/TO: IL2/PD1” value in data set [2] (setting [11]) amounted to 2.1. Further, the results for the pEC50 in data set [3] and in data set [4] were less than 4.60 and 4.63, respectively. For the same compound, in [5], the “Liver Microsome Stability (Multiple Species): Human - % Remaining after 30 min w/NADPH” value is reported as 1.3%. Also, the “24 hr Dox Inducible TNFaFLGluc 293FRT/TO: TNF/PD1” value in data set [6] (setting [11]) is greater than 31.2. Further, the “Liver Microsome Stability (Multiple Species): Rat - % Remaining after 30 min w/NADPH” value in data set [8] is on record as 2.04%. Also, in [10], the “Liver Microsome Stability (Multiple Species): Monkey - % Remaining after 30 min w/NADPH” value is recorded as 0.19%.

Turning to `CC(=O)N1CCOC(/C=C/c2csc(NC(=O)c3cccn3Cc3ccncc3)n2)C1` (centres unmarked) [Compound B10, (E)-N-(4-(2-(4-acetylmorpholin-2-yl)vinyl)thiazol-2-yl)-1-(pyridin-4-ylmethyl)-1H-pyrrole-2-carboxamide], the “Liver Microsome Stability (Multiple Species): Mouse - % Remaining after 30 min w/NADPH” value in data set [1] came out at 9.22%. Besides, the pIC50 in data set [2] was less than 4.60; in data set [6], less than 4.60; in [7] it was 4.70; in data set [9] it was less than 4.60. Besides, in data set [2], the “24 hr Dox Inducible IL2FLGluc 293FRT/TO: IL2/PD1” value turned out to be 1.3. Moreover, the pEC50 in data set [3] and in data set [4] was less than 4.60 each time. In addition, the “Liver Microsome Stability (Multiple Species): Human - % Remaining after 30 min w/NADPH” value in data set [5] was 1.05%. Moreover, in [6], the “24 hr Dox Inducible TNFaFLGluc 293FRT/TO: TNF/PD1” value is on record as greater than 1.25. Also, the “Liver Microsome Stability (Multiple Species): Rat - % Remaining after 30 min w/NADPH” value in [8] is given as 2.71%. Moreover, the “Liver Microsome Stability (Multiple Species): Monkey - % Remaining after 30 min w/NADPH” value in data set [10] was determined as 0.1%.

Consider `O=C(Nc1nc(/C=C/c2cn(C3CCCCC3)cn2)cs1)c1cccn1CC1CCOCC1` [Compound D5, (E)-N-(4-(2-(1-cyclohexyl-1H-imidazol-4-yl)vinyl)thiazol-2-yl)-1-((tetrahydro-2H-pyran-4-yl)methyl)-1H-pyrrole-2-carboxamide], for which the “Liver Microsome Stability (Multiple Species): Mouse - % Remaining after 30 min w/NADPH” value in data set [1] is listed as 0.54%. Also, the pIC50 in data set [2] (mean) was 4.87; in data set [6] (mean), less than 4.60; in [7] (mean), 6.11; in [9] (mean), 4.67. Moreover, the “24 hr Dox Inducible IL2FLGluc 293FRT/TO: IL2/PD1” value in data set [2] (setting [11]) turned out to be 17. For the same compound, the pEC50 in data set [3] is less than 4.61; in data set [4], 4.72. In addition, the “Liver Microsome Stability (Multiple Species): Human - % Remaining after 30 min w/NADPH” value in data set [5] came out at 0.18%. The “24 hr Dox Inducible TNFaFLGluc 293FRT/TO: TNF/PD1” value in [6] (setting [11]) is listed as greater than 32.2. For the same compound, in data set [8], the “Liver Microsome Stability (Multiple Species): Rat - % Remaining after 30 min w/NADPH” value was 0.16%. In addition, the “Liver Microsome Stability (Multiple Species): Monkey - % Remaining after 30 min w/NADPH” value in [10] amounted to 0.17%.

For `O=C(Nc1nc([C@H]2CCCN2c2ccccc2)cs1)c1cccn1-c1cccc2cnccc12` [Compound C111, (R)-1-(isoquinolin-5-yl)-N-(4-(1-phenylpyrrolidin-2-yl)thiazol-2-yl)-1H-pyrrole-2-carboxamide], in data set [1], the “Liver Microsome Stability (Multiple Species): Mouse - % Remaining after 30 min w/NADPH” value was 0.64%. Moreover, the pIC50 in data set [2] (mean) was 6.18; in data set [6] (mean) it was 5.31; in [7] (mean), 6.50; in [9] (mean), 6.53. Also, the “24 hr Dox Inducible IL2FLGluc 293FRT/TO: IL2/PD1” value in [2] (setting [11]) is on record as 2.1. The pEC50 in [3] and in data set [4] was less than 4.60 each time. Also, in [5], the “Liver Microsome Stability (Multiple Species): Human - % Remaining after 30 min w/NADPH” value turned out to be 0.86%. Moreover, the “24 hr Dox Inducible TNFaFLGluc 293FRT/TO: TNF/PD1” value in [6] (setting [11]) turned out to be 15.5. For the same compound, the “Liver Microsome Stability (Multiple Species): Rat - % Remaining after 30 min w/NADPH” value in data set [8] amounted to 0.62%. Besides, the “Liver Microsome Stability (Multiple Species): Monkey - % Remaining after 30 min w/NADPH” value in data set [10] is 0.28%.

With `O=C(Nc1nc(/C=C/[C@@H]2CCCCN2)cs1)c1cccn1Cc1ccncc1` [Compound E18, (S,E)-N-(4-(2-(piperidin-2-yl)vinyl)thiazol-2-yl)-1-(pyridin-4-ylmethyl)-1H-pyrrole-2-carboxamide], in data set [1], the “Liver Microsome Stability (Multiple Species): Mouse - % Remaining after 30 min w/NADPH” value turned out to be 33.5%. For the same compound, the pIC50 in data set [2] (mean), in data set [6] (mean), in data set [7] (mean) and in data set [9] (mean) was less than 5.30 in each case. Further, the “24 hr Dox Inducible IL2FLGluc 293FRT/TO: IL2/PD1” value in data set [2] (setting [11]) is 1. In addition, the pEC50 in [3] and in [4] was less than 4.60 in each case. The “Liver Microsome Stability (Multiple Species): Human - % Remaining after 30 min w/NADPH” value in data set [5] was 0.2%. Further, the “Liver Microsome Stability (Multiple Species): Rat - % Remaining after 30 min w/NADPH” value in data set [8] is given as 19.4%. The “Liver Microsome Stability (Multiple Species): Monkey - % Remaining after 30 min w/NADPH” value in [10] stood at 0.27%.

With `CC1CCCn2cnc(/C=C/c3csc(NC(=O)c4cccn4Cc4ccnc(F)c4)n3)c21` (centres unmarked) [Compound B102, (E)-1-((2-fluoropyridin-4-yl)methyl)-N-(4-(2-(8-methyl-5,6,7,8-tetrahydroimidazo[1,5-a]pyridin-1-yl)vinyl)thiazol-2-yl)-1H-pyrrole-2-carboxamide], the “Liver Microsome Stability (Multiple Species): Mouse - % Remaining after 30 min w/NADPH” value in data set [1] worked out at 9.83%. Further, the pIC50 in data set [2] is 5.20; in data set [6] it was less than 4.60; in [7], 7.44; in [9], 5.34. In addition, the “24 hr Dox Inducible IL2FLGluc 293FRT/TO: IL2/PD1” value in data set [2] is 170. The figures for the pEC50 in [3] and in [4] were less than 4.60 and 4.67, respectively. The “Liver Microsome Stability (Multiple Species): Human - % Remaining after 30 min w/NADPH” value in data set [5] is listed as 0.71%. In addition, the “24 hr Dox Inducible TNFaFLGluc 293FRT/TO: TNF/PD1” value in [6] is greater than 681. The “Liver Microsome Stability (Multiple Species): Rat - % Remaining after 30 min w/NADPH” value in data set [8] is 6.8%. The “Liver Microsome Stability (Multiple Species): Monkey - % Remaining after 30 min w/NADPH” value in [10] turned out to be 0.85%.
